For 17 compounds, IC50 results are on record in US8742110B2, “Spiroxazolidinone compounds” (Merck Sharp & Dohme Corp., priority 2010, dated 2014).

The test deals with SSTR5 (Homo sapiens (Human), UniProt P35346). Put plainly: SSTR5 binding assay. The note with it: CHO-K1 membranes expressing cloned human SSTR5. Summed up:
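Competition binding on membranes from CHO-K1 cells stably expressing cloned human receptor, using radiolabeled somatostatin in 50 mM Tris-HCl pH 7.8 with EGTA, MgCl2 and protease inhibitors. Unlabeled compounds tested from 0.01 nM to 10,000 nM.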

Counter-ions that a name gives are not always drawn.

Chain of SSTR5 (P35346 whole entry): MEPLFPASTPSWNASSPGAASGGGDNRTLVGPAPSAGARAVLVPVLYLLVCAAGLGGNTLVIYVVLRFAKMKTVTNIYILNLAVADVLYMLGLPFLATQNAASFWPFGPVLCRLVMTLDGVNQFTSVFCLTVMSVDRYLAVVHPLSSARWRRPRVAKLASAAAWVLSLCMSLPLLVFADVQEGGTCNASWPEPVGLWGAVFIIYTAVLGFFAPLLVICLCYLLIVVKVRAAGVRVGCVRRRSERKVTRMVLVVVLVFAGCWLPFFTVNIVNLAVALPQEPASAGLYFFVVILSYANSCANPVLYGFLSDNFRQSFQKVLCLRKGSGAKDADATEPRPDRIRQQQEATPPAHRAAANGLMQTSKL

The term IC50 denotes the concentration at which inhibition is half-maximal. A higher IC50 goes with lower potency. As to `COc1ccc2c(CN3CCC4(CC3)CN(c3ccc(C(=O)O)cc3)C(=O)O4)cn(-c3ccccc3)c2c1` [Example 6-23, 4-{8-[(6-Methoxy-1-phenyl-1H-indol-3-yl)methyl]-2-oxo-1-oxa-3,8-diazaspiro[4.5]dec-3-yl}benzoic acid, TFA salt], the IC50 came out at 9.06 nM.

The compound `CC(C)n1cc(CN2CCC3(CC2)CN(c2ccc(C(=O)O)cc2)C(=O)O3)c2cc(-c3ccc(F)c(F)c3F)ccc21` [Example 6-24, TFA salt] gave an IC50 of 0.342 nM.

In the case of `CC(C)n1cc(CN2CCC3(CC2)CN(c2ccc(C(=O)O)cc2)C(=O)O3)c2cc(Br)ccc21` [Example 6-25, 4-(8-{[5-Bromo-1-(propan-2-yl)-1H-indol-3-yl]methyl}-2-oxo-1-oxa-3,8-diazaspiro[4.5]dec-3-yl)benzoic acid, TFA salt], the IC50 worked out at 0.55 nM.

Turning to `COc1ccc2c(c1)c(CN1CCC3(CC1)CN(c1ccc(C(=O)O)cc1)C(=O)O3)cn2C(C)C` [Example 6-26, 4-(8-{[5-Methoxy-1-(propan-2-yl)-1H-indol-3-yl]methyl}-2-oxo-1-oxa-3,8-diazaspiro[4.5]dec-3-yl)benzoic acid, TFA salt], the half-maximal inhibitory concentration (IC50) came out at 1.45 nM.

For the compound `O=C(O)c1ccc(N2CC3(CCN(Cc4nc(-c5ccccc5)oc4-c4ccc(F)c(Cl)c4)CC3)OC2=O)cc1` [Example 6-27, 4-(8-{[5-(3-Chloro-4-fluorophenyl)-2-phenyl-1,3-oxazol-4-yl]methyl}-2-oxo-1-oxa-3,8-diazaspiro[4.5]dec-3-yl)benzoic acid, TFA salt], the concentration for half-maximal inhibition (IC50) stood at 119 nM.

`COc1ccc(-c2nc(C3CCCCC3)sc2CN2CCC3(CC2)CN(c2ccc(C(=O)O)cc2)C(=O)O3)cc1` [Example 6-28, 4-(8-{[2-Cyclohexyl-4-(4-methoxyphenyl)-1,3-thiazol-5-yl]methyl}-2-oxo-1-oxa-3,8-diazaspiro[4.5]dec-3-yl)benzoic acid, TFA salt]: the concentration for half-maximal inhibition (IC50) is 1.34 nM.

The compound `COc1ccc(-c2nc(C(C)(C)C)sc2CN2CCC3(CC2)CN(c2ccc(C(=O)O)cc2)C(=O)O3)cc1` [Example 6-29, 4-(8-{[2-tert-Butyl-4-(4-methoxyphenyl)-1,3-thiazol-5-yl]methyl}-2-oxo-1-oxa-3,8-diazaspiro[4.5]dec-3-yl)benzoic acid, TFA salt] had a concentration for half-maximal inhibition (IC50) of 0.705 nM.

Compound `O=C(O)c1ccc(N2CC3(CCN(Cc4nc(-c5ccccc5)oc4-c4cc(F)c(F)cc4F)CC3)OC2=O)cc1` [Example 6-30, 4-(2-Oxo-8-{[2-phenyl-5-(2,4,5-trifluorophenyl)-1,3-oxazol-4-yl]methyl}-1-oxa-3,8-diazaspiro[4.5]dec-3-yl)benzoic acid, TFA salt] yielded an IC50 of 89.9 nM.

Compound `O=C(O)c1ccc(N2CC3(CCN(Cc4nc(C5CC5)oc4-c4ccc(F)c(Cl)c4)CC3)OC2=O)cc1` [Example 6-31, 4-(8-{[5-(3-Chloro-4-fluorophenyl)-2-cyclopropyl-1,3-oxazol-4-yl]methyl}-2-oxo-1-oxa-3,8-diazaspiro[4.5]dec-3-yl)benzoic acid, TFA salt] had an IC50 of 414 nM.

In turn, `O=C(O)c1ccc(N2CC3(CCN(Cc4sc(-c5ccccc5)nc4-c4ccccc4)CC3)OC2=O)cc1` [Example 6-32, 4-{8-[(2,4-Diphenyl-1,3-thiazol-5-yl)methyl]-2-oxo-1-oxa-3,8-diazaspiro[4.5]dec-3-yl}benzoic acid, TFA salt] yielded a 50% inhibitory concentration (IC50) of 69.1 nM.

The compound `Cc1nc(-c2ccccc2)c(CN2CCC3(CC2)CN(c2ccc(C(=O)O)cc2)C(=O)O3)s1` [Example 6-33, 4-{8-[(2-Methyl-4-phenyl-1,3-thiazol-5-yl)methyl]-2-oxo-1-oxa-3,8-diazaspiro[4.5]dec-3-yl}benzoic acid, TFA salt] showed an IC50 of 153 nM.

`O=C(O)c1ccc(N2CC3(CCN(Cc4nc(-c5ccccc5)oc4-c4ccccc4)CC3)OC2=O)cc1` [Example 6-34, 4-{8-[(2,5-Diphenyl-1,3-oxazol-4-yl)methyl]-2-oxo-1-oxa-3,8-diazaspiro[4.5]dec-3-yl}benzoic acid, TFA salt]: the IC50 worked out at 86 nM. This IC50 is about 1.8-fold lower than that of the compound before.

Consider `CC(C)(C)c1nc(-c2cc(F)c(F)cc2F)c(CN2CCC3(CC2)CN(c2ccc(C(=O)O)cc2)C(=O)O3)s1` [Example 6-35, 4-(8-{[2-tert-Butyl-4-(2,4,5-trifluorophenyl)-1,3-thiazol-5-yl]methyl}-2-oxo-1-oxa-3,8-diazaspiro[4.5]dec-3-yl)benzoic acid, TFA salt], for which the IC50 was 1.74 nM.

`O=C(O)c1ccc(N2CC3(CCN(Cc4nc5ccccn5c4-c4cc(F)c(F)cc4F)CC3)OC2=O)cc1` [Example 6-36, 4-(2-Oxo-8-{[3-(2,4,5-trifluorophenyl)imidazo[1,2-a]pyridin-2-yl]methyl}-1-oxa-3,8-diazaspiro[4.5]dec-3-yl)benzoic acid, TFA salt] showed an IC50 of 1200 nM.

As to `O=C(O)c1ccc(N2CC3(CCN(Cc4c(-c5ccccc5)nc5ccccn45)CC3)OC2=O)cc1` [Example 6-37, 4-{2-Oxo-8-[(2-phenylimidazo[1,2-a]pyridin-3-yl)methyl]-1-oxa-3,8-diazaspiro[4.5]dec-3-yl}benzoic acid, TFA salt], the IC50 turned out to be 13.4 nM.

Compound `Cc1nc2ccccn2c1CN1CCC2(CC1)CN(c1ccc(C(=O)O)cc1)C(=O)O2` [Example 6-38, 4-{8-[(2-Methylimidazo[1,2-a]pyridin-3-yl)methyl]-2-oxo-1-oxa-3,8-diazaspiro[4.5]dec-3-yl}benzoic acid, TFA salt] displayed an IC50 of 1010 nM. Against the preceding compound, the IC50 is about 75-fold higher.

`Cc1cccn2c(-c3cc(F)c(F)cc3F)c(CN3CCC4(CC3)CN(c3ccc(C(=O)O)cc3)C(=O)O4)nc12` [Example 6-39, 4-(8-{[8-Methyl-3-(2,4,5-trifluorophenyl)imidazo[1,2-a]pyridin-2-yl]methyl}-2-oxo-1-oxa-3,8-diazaspiro[4.5]dec-3-yl)benzoic acid, TFA salt] showed a concentration for half-maximal inhibition (IC50) of 442 nM.
